The structures appear in SMILES notation. Counter-ions that a name gives are not always drawn.

The test system of one assay is BUD-8 human fibroblast. Briefly: BUD-8 human cell line fibroblast proliferation assay. It is filed as cell-based. To be noted: 72 h, estimated, BUD-8 cells, 3 days, MTT. From the text:
ii BUD-8 human cell line fibroblast proliferation assay.
(§1) The MLR assay measures the effects of a study compound on the activation and antigen presentation of T-lymphocytes, therefore determining immunomodulatory properties. The mouse spleen cell mitogen-induced blastogenesis and the BUD-8 human fibroblast proliferation assays measure the effects of the compounds of the present invention on cellular proliferation of cells involved in the pathogenesis of autoimmune diseases. These two assays are appropriate as screens to ascertain anti-inflammatory and/or autoimmune diseases.
The skin cell fibroblast line, BUD-8, was originally derived from the normal skin of a person and can now be obtained from the American Type Culture Collection, Rockville, Md. The concentration of the compounds which were used in this assay were: 1, 10, 30, 100, and 300 μM. The vehicle was used as the negative control. Test compounds were prepared in DMSO at a stock concentration of […]. Appropriate dilutions were made in culture medium.
In this assay BUD-8 cells were collected, counted, and diluted to 2×10^4 cells/ml. 0.1 ml was plated per well to give 2×10^3 cells/well. The compounds of the present invention were diluted in culture medium to the appropriate concentrations. Aliquotes of 100 μl were distributed to triplicate wells. Control wells with vehicle and wells with media were also run. After a three day incubation at 37° C. with 5% carbon dioxide, proliferation was measured by adding 20 μl of MTT (10 mg/ml in PBS) (3-[4,5-dimethyl thiazol-2-yl]-2,5diphenyl-tetrazolium bromide) to each well. Plates were incubated for 4 hours at 37° C., after which 180 μl of 10% SDS in PBS were added. After an overnight incubation, the optical density (OD) of each well was read using a Molecular Devices microplate reader at 570-650 nm.
(§2) Duplicate cultures were also set up to measure viability. After 3 days of incubation, supernatants were assayed for lactate dehydrogenase (LDH) activity to determine the viability of the cells, which is an indication of the toxicity of the test article on the BUD-8 cells. 0.1 ml of supernatent was mixed with 0.1 ml of the LDH substrate mixture which contains 5.4×10^-2 M L(+) lactate, 6.6×10^-4 M 2-p-iodophenyl-3-p-nitrophenyl tetrazolium chloride, 2.8×10^-4 M phenazine methosulfate, 1.3×10^-3 M AND, and 0.2 M Tris buffer. PH 8.2. Plates were read immediately for 5 minutes at 490 nm using a Molecular Devices microplate reader.
The mean for each test article treated group was determined and compared to the mean of the control group. The percent change from the control was calculated, and the IC50 estimated. The criteria used to establish activity levels were:
Sixteen (16) test articles were assayed for their ability to inhibit fibroblast proliferation. The test article were added to BUD-8 cell cultures to give final concentrations of 1, 10, 30, 100, and 300 μM. The proliferation observed in the test article treated wells were compared to the DMSO control wells.

The test system of assay [1] is T cells (BALB/CBYJ responder spleen cells with C57BL/6J stimulator spleen cells). Briefly: Mixed lymphocyte response (MLR). It is filed as cell-based. To be noted: Mus musculus, T-cell, 120 h; estimated; 5 days incubation; MTT.
Description: i Mixed lymphocyte response (MLR).
as §1
The MLR is a classical assay used to measure T cell function by studying the proliferation response of T cells which are activated in vitro by genetically disparate stimulator cells. This is accomplished by co-culturing spleen cells from two different strains of mice. Splenic T cell proliferation occurs as a result of cellular activation signals generated by the ongoing cellular interactions.
In performing MLR assays, BALB/CBYJ mice were euthanized by cervical dislocation and their spleens removed. Single cell suspensions were prepared in culture medium (RPMI-1640 with hepes supplemented with 10% calf serum, 2 mM glutamine, 500 units penicillin/streptomycin and 4×10^-5 M 2-mercaptoethanol) using a Teflon pestle. The cells were centrifuged at 1500 RPM and the pellets resuspended in ACT (0.15 M Tris, 0.14 M ammonium chloride, pH 7.2 ) in order to lyse the red blood cells. After a 5 minutes incubation at 37° C. waterbath, the cells were washed and resuspended in culture medium. The splenic lymphocytes were counted. C57BL/6J spleen cells, which were used as stimulator cells, were prepared in the same way. The stimulator cells were treated with 50 μm/ml of mitomycin C for 20 minutes at 37° C., then washed five times in culture medium. The proliferative response were measured by culturing 5×10^5 responder spleen cells with 5×10^5 stimulator cells in 96-well microtiter plates in the presence or absence of test article or vehicle (DMSO). Syngeneic control cultures using mitomycin C treated normal BALB/C spleen cells as the stimulator cells were also run. All cultures were run in triplicate.
Solutions of compounds of the present invention in DMSO were prepared at a stock concentration of 300 mM. Solutions were made in a culture medium to a concentration of 1, 10, 30, 100, and 300 μM. The vehicle DMSO was used as a negative control.
After incubation for 5 days at 37° C. with 5% carbon dioxide, the amount of cell proliferation was measured by adding 20 μl of MTT (10 mg/ml in PBS) (3-[4,5-dimethylthiazol-2-yl]-2,5-diphenyltetrazolium bromide) to each well. plates were incubated for 4 hours at 37° C., after which 180 μl of supernatant was removed and 180 μl of 10% SDS in PBS was added. After an overnight incubation, the optical density (OD) of each well was read on a Molecular Devices microplate reader at 570-650 nm.
The results were determined by calculating the difference between the means of the allogeneic cultures and the means of the syngeneic cultures for each test compound concentration. Differences of the test article groups were compared to the difference of the control group. The percent change from the control was determined and an IC50 estimated. The criteria used to establish activity levels were:
Sixteen (16) novel compounds were assayed for their ability to modulate a Mixed Lymphocyte Response in vitro. The test compounds were added to MLR cultures to give final concentrations of 1, 10, 30, 100, and 300 μm. The responses observed in the test article treated wells were compared to the control wells. […] Based on the estimated IC50 all the test compounds were strong inhibitors of the MLR.

For another assay, the system named is mouse spleen cells. Briefly: Concanavalin A assay (mouse spleen cell mitogen induced blastogenesis). It is filed as cell-based. To be noted: 72 h, estimated, Con-A 1.25 μg/ml, 3 days, MTT.
Description: iii Concanavalin A assay (the mouse spleen cell mitogen induced blastogenesis).
as §1
It is known that the induction and maintenance of most inflammatory diseases are typically due to the unrestricted activity of T-lymphocytes. Therefore, it is advantageous to identify compounds which are modulators of T-lymphocyte activity for eventual use in the regulation of inflammatory diseases, including acquired immune deficiency syndrome, psoriasis, systemic lupus, erythromatosus, and rheumatoid arthritis.
A simple method is used to screen compounds for their ability to modulate T-lymphocyte activity which comprises assessing the capacity of the compounds to alter the activation of murine spleen cells in response to T-lymphocyte mitogen activators, such as Conconavalin-A (Con-A). The method used to measure the effects of the compounds of the present invention on the blastogenic response of spleen cells to the T-lymphocyte mitogen (Con-A) is as follows:
The response of a mouse spleen cells to the T cell mitogen ConA is a classical assay. In this assay, mice were euthanized by cervical dislocation and their spleens removed surgically. A single cell suspension of the spleens was prepared in culture medium (RPMI-1640 with hepes, supplemented with 10% calf serum, 2 mM glutamine, 500 units penicillin/streptomycin, and 4×10^-5 M 2-mercaptoethanol) using a Teflon pestle. The cells were centrifuged at 1500 RPM and the pellets resuspended in ACT (0.15 M Tris, 0.14 M Ammonium chloride, pH 7.2) in order to lyse the red blood cells. After a five minutes incubation in 37° C. waterbath, the cells were washed and resuspended in culture medium. The splenic lymphocytes were counted using an electronic Coulter Counter and diluted to 5.0×10^6 cells/mi.
The test articles were diluted in culture medium to the appropriate concentrations. Aliquots 100 μl were distributed to triplicate wells in a 96-well microtiter plate. 50 μl of lymphocytes (2.5×10^5 cells) were added to each well. Control wells with vehicle and wells with media were also run. Plates were incubated for one hour at 37° C. 50 μl of Con-A (5 μl/ml) were then added to the wells to result in a final concentration of 1.25 μg/ml. After incubation at 37° C. with 5% carbon dioxide for 3 days, proliferation was measured by adding 20 μl of MTT (10 mg/mlin PBS) [3-(4,5-dimethyl-thiazol-2-yl)-2,5-diphenyltetrazoliumbromidel to each well. Plates were incubated for 4 hours at 37° C., after which 180 μl of 10% SDS in PBS were added. After an overnight incubation, the optical density (OD) of each well was read using a Molecular Devices microplate reader at 570-650 nm.
as §2, with “cultures without Con-A” for “cultures”, “up.” for “up to measure viability.”, “dehydrogenase” for “dehydrogenase (LDH)”, “splenic lymphocytes.” for “BUD-8 cells.”, “supernatant” for “supernatent”, “buffer, pH” for “buffer. PH”
The mean for each test article treated group was determined and compared to the mean of the control group. The percent change from the control was calculated, and the IC50 was estimated. […]

The subject of assay [2] is various tumor cell lines, derived from seven cancer types. Briefly: Tumor cell line screens (leukemia, melanoma, lung, colon, renal, ovarian, brain cancer). It is filed as cell-based. Particulars: average over tumor cell lines; read-out: GI (Average GI50) (converted). The protocol: The compounds of the present invention were also tested against various tumor cell lines, derived from seven cancer types. These include leukemia, melanoma, lung cancer, colon cancer, renal cancer, ovarian cancer, and brain cancer. Most of the compounds have shown significant activity in various screens, particularly against colon cancer and melanoma.

In a further assay the test system is rheumatoid arthritis. To be noted: cited from earlier work.

As for `CCCCCCCCCOCCCO[C@H]1O[C@H](CN2CCCC2)[C@@H]2OC(C)(C)O[C@H]12` [XVI], the IC50 (usually the concentration needed to halve the response being measured) with BUD-8 human fibroblast was 58 µM; in assay [1], < 1 µM; in the assay on mouse spleen cells, 3.5 µM. Besides, the GI50 (usually the concentration giving 50% growth inhibition) in assay [2] is 5.13 µM.

For `CN(C)CCCOC[C@H]1O[C@H](OCCCc2ccccc2)[C@H]2OC(C)(C)O[C@H]21` [X], the IC50 in the assay with BUD-8 human fibroblast is 299 µM; in assay [1] it was < 1 µM; with mouse spleen cells, 55 µM. Besides, in assay [2], the concentration for 50% growth inhibition (GI50) was 91.2 µM.

Consider `CCCCCCCCCOCCCO[C@H]1O[C@H](COCCN2CCCCC2)[C@@H]2OC(C)(C)O[C@H]12` [VI, n-Nonyloxypropyl 2,3-0-(1-methlethylidene)-5-0-N'-ethylpiperidinyl-α-D-lyxofuranoside], for which the results for the half-maximal inhibitory concentration (IC50) (in the assay with BUD-8 human fibroblast; in assay [1]; in the assay with mouse spleen cells) were > 100 µM, 0.5 µM and 2.7 µM, respectively.

`CCCCCCCCCOCCCO[C@H]1O[C@H](COCCN2CCCC2)[C@@H]2OC(C)(C)O[C@H]12` [V, n-Nonyloxypropyl 2,3-0-(1-methlethylidene)-5-0-N'-ethylpyrrolidinyl-α-D-lyxofuranoside]: the IC50 in the assay on BUD-8 human fibroblast is 28 µM; in assay [1], < 1 µM; in the assay with mouse spleen cells, 2.9 µM. In addition, the GI50 in assay [2] was 5.62 µM.

For the compound `CC1(C)O[C@@H]2[C@@H](OCCCc3ccccc3)O[C@H](CN3CCCC3)[C@@H]2O1` [XXV, Phenylpropyl 5-deoxy-2,3-0-(1-methylethylidene)-5-pyrrolidinyl-α-D-lyxofuranoside], the results for the IC50 (with BUD-8 human fibroblast; in assay [1]; in the assay with mouse spleen cells) were 200 µM, 12 µM and 25 µM, respectively. Besides, the GI50 in assay [2] is 95.5 µM.

As for `CCCCCCCCCOCCCO[C@H]1O[C@H](CNCCCN2CCCC2)[C@@H]2OC(C)(C)O[C@H]12` [XXIV, n-Nonyloxypropyl 5-deoxy-2,3-0-(1-methylethylidene)-5-aminopropylpyrrolidinyl-α-D-lyxofuranoside], the IC50 is 16 µM in the assay on BUD-8 human fibroblast, 0.85 µM in assay [1] and 2.5 µM with mouse spleen cells.

As to `CN(C)CCCO[C@@H]1[C@H]2OC(C)(C)O[C@H]2O[C@@H]1[C@H](O)CO` [Amiprilose. HCl, 1,2-0-isopropylidene-3-0-3'-(N',N'-dimethylaminopropyl)-α-D-glucofuranose], in the assay on rheumatoid arthritis (in vivo), the “Anti-inflammatory activity (in words)” value is “known to have anti-inflammatory activity”. For the same compound, in the assay on rheumatoid arthritis (late Phase III clinical trials), the “Utility in managing the signs and symptoms of rheumatoid arthritis (in words)” value is “demonstrated utility in managing the signs and symptoms of rheumatoid arthritis”.

Take `CCCCCCCCCNC[C@H]1O[C@H](OCCCc2ccccc2)[C@H]2OC(C)(C)O[C@H]21` [XXIX, Phenylpropyl 5-deoxy-2,3-0-(1-methylethylidene)-5-aminononyl-α-D-lyxofuranoside]: the 50% inhibitory concentration (IC50) with BUD-8 human fibroblast is 20 µM; in assay [1] it was 1.5 µM; in the assay on mouse spleen cells it was 5 µM. Besides, the GI50 in assay [2] is 32.4 µM.

The values above are taken from US5367062A, “Disubstituted and deoxydisubstituted derivatives of α-d-lyxofuranosides having anti-inflammatory and anti-proliferative activity” (Medicarb Inc., priority 1992, dated 1994).
